Experimental data taken from ChEMBL document CHEMBL1126082, “Nucleosides and nucleotides. 107. 2-(cycloalkylalkynyl)adenosines: adenosine A2 receptor agonists with potent antihypertensive effects” (J Med Chem, 1992).
pKi: −log10 of the molar value.

Tests used:
[1] = tested on: Rattus norvegicus; test: Dose producing 30% decrease in blood pressure of anesthetized spontaneous hypertensive male rat(SHR); format: functional
[2] = tested on: Rattus norvegicus; test: Dose producing 10% decrease in heart rate of anaesthetized spontaneous hypertensive male rat(SHR); format: functional
[3] = target: T1, Adenosine receptor A1 (Rattus norvegicus, UniProt P25099); test: Inhibition of [3H]CHA binding to adenosine A1 receptor from rat brain membranes; format: cell membranes, Membrane
T1 sequence (P25099 whole entry): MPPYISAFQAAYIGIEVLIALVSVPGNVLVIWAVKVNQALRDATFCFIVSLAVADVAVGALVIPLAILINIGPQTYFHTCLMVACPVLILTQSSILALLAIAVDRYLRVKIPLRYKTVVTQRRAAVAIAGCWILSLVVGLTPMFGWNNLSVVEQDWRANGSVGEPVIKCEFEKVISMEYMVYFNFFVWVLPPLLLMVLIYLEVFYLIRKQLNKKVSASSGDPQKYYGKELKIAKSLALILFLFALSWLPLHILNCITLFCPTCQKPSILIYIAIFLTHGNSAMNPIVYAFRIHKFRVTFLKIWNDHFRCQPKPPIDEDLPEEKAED

[4] = target: Adenosine A2 receptor (Rattus norvegicus, UniProt P29276+P30543)
Description: Inhibition of [3H]NECA binding to adenosine A2 receptor from rat striatal membranes

Row | SMILES | ED30 [1] | ED10 [2] | pKi [3] | Ki [4] | pKi [4]
1 | CCNC(=O)[C@H]1O[C@@H](n2cnc3c(N)nc(NCCc4ccc(CCC(=O)O)cc4)nc32)[C@H](O)[C@@H]1O [CGS-21680] | 0.97 µg/kg | > 100 µg/kg | – | – | –
2 | Nc1nc(C#CC2(O)CCCCC2)nc2c1ncn2[C@@H]1O[C@H](CO)[C@@H](O)[C@H]1O | 0.02 µg/kg | 3.5 µg/kg | – | – | –
3 | CCCCC#Cc1nc(N)c2ncn([C@@H]3O[C@H](CO)[C@@H](O)[C@H]3O)c2n1 | 0.11 µg/kg | 67 µg/kg | – | – | –
4 | Nc1nc(C#CC2(O)CCCCCC2)nc2c1ncn2[C@@H]1O[C@H](CO)[C@@H](O)[C@H]1O | 0.02 µg/kg | 5.6 µg/kg | 7.57 | 1.1 nM | –
5 | Nc1nc(C#CCCCC2CCCCC2)nc2c1ncn2C1O[C@H](CO)[C@@H](O)[C@H]1O (stereo not given in full) | 1.64 µg/kg | > 100 µg/kg | < 6.64 | 46 nM | –
6 | CC(O)C#Cc1nc(N)c2ncn([C@@H]3O[C@H](CO)[C@@H](O)[C@H]3O)c2n1 (stereo not given in full) | 0.15 µg/kg | 0.8 µg/kg | 7.82 | 18 nM | –
7 | Nc1nc(C#CC(O)c2ccccc2)nc2c1ncn2[C@@H]1O[C@H](CO)[C@@H](O)[C@H]1O (stereo not given in full) | 0.05 µg/kg | 1.3 µg/kg | 8.47 | 1.9 nM | –
8 | CC(C)(O)C#Cc1nc(N)c2ncn([C@@H]3O[C@H](CO)[C@@H](O)[C@H]3O)c2n1 | 0.14 µg/kg | 1.4 µg/kg | 7.49 | 19 nM | –
9 | Nc1nc(C#CCC2CCCC2)nc2c1ncn2[C@@H]1O[C@H](CO)[C@@H](O)[C@H]1O | 0.05 µg/kg | > 100 µg/kg | – | 2.3 nM | –
10 | Nc1nc(C#CCC2CCCCC2)nc2c1ncn2C1O[C@H](CO)[C@@H](O)[C@H]1O (stereo not given in full) | 0.15 µg/kg | > 100 µg/kg | – | – | –
11 | CCCCCC(O)C#Cc1nc(N)c2ncn(C3O[C@H](CO)[C@@H](O)[C@H]3O)c2n1 (stereo not given in full) | 0.06 µg/kg | 0.45 µg/kg | 7.96 | 2 nM | –
12 | Nc1nc(C#CCO)nc2c1ncn2[C@@H]1O[C@H](CO)[C@@H](O)[C@H]1O | 0.36 µg/kg | 0.74 µg/kg | 8.08 | 20 nM | –
13 | CCCCCCC#Cc1nc(N)c2ncn([C@@H]3O[C@H](CO)[C@@H](O)[C@H]3O)c2n1 | 0.2 µg/kg | > 100 µg/kg | 6.88 | 7.9 nM | –
14 | Nc1nc(C#CCCc2ccccc2)nc2c1ncn2[C@@H]1O[C@H](CO)[C@@H](O)[C@H]1O | 1.21 µg/kg | > 100 µg/kg | 6.40 | 37 nM | –
15 | Nc1nc(C#CC2CCCC2)nc2c1ncn2[C@@H]1O[C@H](CO)[C@@H](O)[C@H]1O | 0.29 µg/kg | > 100 µg/kg | 7.06 | 12 nM | –
16 | Nc1nc(C#CC2(O)CCCCCCC2)nc2c1ncn2[C@@H]1O[C@H](CO)[C@@H](O)[C@H]1O | 0.01 µg/kg | 13 µg/kg | – | – | –
17 | Nc1nc(C#CCCC2CCCCC2)nc2c1ncn2C1O[C@H](CO)[C@@H](O)[C@H]1O (stereo not given in full) | 0.48 µg/kg | > 100 µg/kg | 6.50 | 26 nM | –
18 | CCCC(O)C#Cc1nc(N)c2ncn(C3O[C@H](CO)[C@@H](O)[C@H]3O)c2n1 (stereo not given in full) | 0.04 µg/kg | 0.83 µg/kg | 7.80 | 1.8 nM | –
19 | Nc1nc(C#CCCC2CCCC2)nc2c1ncn2C1O[C@H](CO)[C@@H](O)[C@H]1O (stereo not given in full) | 0.16 µg/kg | > 100 µg/kg | 6.87 | 3.4 nM | –
20 | Nc1nc(C#CC2(O)CCCC2)nc2c1ncn2C1O[C@H](CO)[C@@H](O)[C@H]1O (stereo not given in full) | 0.07 µg/kg | 1.6 µg/kg | 7.96 | 3.3 nM | –
21 | Nc1nc(C#Cc2ccccc2)nc2c1ncn2[C@@H]1O[C@H](CO)[C@@H](O)[C@H]1O | 10.1 µg/kg | > 100 µg/kg | 6.15 | 109 nM | –
22 | COc1cc(OC)cc(C(CNc2ncnc3c2ncn3[C@@H]2O[C@H](CO)[C@@H](O)[C@H]2O)c2ccccc2C)c1 (stereo not given in full) | – | > 100 µg/kg | 6.97 | – | 8.16
23 | Nc1nc(C#CC2CCCCC2)nc2c1ncn2C1O[C@H](CO)[C@@H](O)[C@H]1O (stereo not given in full) | 0.36 µg/kg | > 100 µg/kg | 6.86 | 10 nM | –
